# Target: T1, KRAS G12C 1-169, his-tagged protein, GDP-loaded (Homo sapiens, UniProt P01116, G12C)
# T1 construct: KRAS G12C 1-169, his-tagged protein, GDP-loaded; His tag
# Experiment: Biochemical assay: covalent modification of KRAS G12C, analysed by mass spectrometry (RapidFire/TOF or Q-Exactive); also: time not given here
# Type: binding
# Conditions: Modification activity, modification percentage from MS peak intensities
# In short: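 GDP-loaded His-tagged KRAS G12C 1-169 (2 μM or 0.5 μM in 20 mM Hepes, 150 mM NaCl, 1 mM MgCl2) reacted with compound at 32 μM or 8 μM final (2% DMSO) for a set time, then quenched with formic acid. Percent covalent modification from deconvoluted intact-protein MS peak intensities (RapidFire/TOF or LC-Q Exactive).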
row,Compound,Binding %
1,"C=CC(=O)N1CC2(CCN(c3c(OC[C@@H]4CCCN4C)ncc(-c4c(C)ccc5cnn(C)c45)c3C#N)C2)C1 [Compound I-182, 3-(2-acryloyl-2,6-diazaspiro[3.4]octan-6-yl)-5-(1,6-dimethyl-1H-indazol-7-yl)-2-(((S)-1-methylpyrrolidin-2-yl)methoxy)isonicoti-nonitrile]",+ (+ indicates binding activity greater than 0% and up to 50%)
2,"C=CC(=O)N1CC2(CCN(c3nc(CCN4CCCC4)nc(-c4c(C)ccc5[nH]ncc45)c3C#N)C2)C1 [Compound I-183, 4-(2-acryloyl-2,6-diazaspiro[3.4]octan-6-yl)-6-(5-methyl-1H-indazol-4-yl)-2-(2-(pyrrolidin-1-yl)ethyl)pyrimidine-5-carbonitrile]",+ (+ indicates binding activity greater than 0% and up to 50%)
3,"C=CC(=O)N1CC2(CCN(c3c(OCCCN(C)C)ncc(-c4c(C)ccc5cnn(C)c45)c3C#N)C2)C1 [Compound I-184, 3-(2-acryloyl-2,6-diazaspiro[3.4]octan-6-yl)-5-(1,6-dimethyl-1H-indazol-7-yl)-2-(3-(dimethylamino)pro-poxy)isonicotinonitrile]",+ (+ indicates binding activity greater than 0% and up to 50%)
4,"C=CC(=O)N1CC2(CCN(c3nc(OC[C@@H]4CCCN4C)cc(-c4c(C)ccc5[nH]ncc45)c3C#N)C2)C1 [Compound I-185, 2-(2-acryloyl-2,6-diazaspiro[3.4]octan-6-yl)-4-(5-methyl-1H-indazol-4-yl)-6-(((S)-1-methylpyrrolidin-2-yl)methoxy)nicotino-nitrile]",+++ (+++ indicates binding activity greater than 85%)
5,"C=CC(=O)N1CC2(CCN(c3nc(OCc4ccc(N5CCN(C)CC5)cn4)nc(-c4c(C)ccc5cnn(C)c45)c3C#N)C2)C1 [Compound I-186, 4-(2-acryloyl-2,6-diazaspiro[3.4]octan-6-yl)-6-(1,6-dimethyl-1H-indazol-7-yl)-2-((5-(4-methylpiperazin-1-yl)pyridin-2-yl)methoxy)pyrimidine-5-carbonitrile]",+ (+ indicates binding activity greater than 0% and up to 50%)
6,"C=CC(=O)N1CC2(CCN(c3nc(N4CC(N(C)C)C4)cc(-c4c(C)ccc5[nH]ncc45)c3C#N)C2)C1 [Compound I-187, 2-(2-acryloyl-2,6-diazaspiro[3.4]octan-6-yl)-6-(3-(dimethylamino)azeti-din-1-yl)-4-(5-methyl-1H-indazol-4-yl)nicotinonitrile]",+ (+ indicates binding activity greater than 0% and up to 50%)
7,"C=CC(=O)N1CC2(CCN(c3nc(N4CCC(N5CCN(C)[C@H](C)C5)CC4)nc(-c4c(C)ccc5[nH]ncc45)c3C#N)C2)C1 [Compound I-188, 4-(2-acryloyl-2,6-diazaspiro[3.4]octan-6-yl)-2-(4-((R)-3,4-dimethylpiperazin-1-yl)piperidin-1-yl)-6-(5-methyl-1H-indazol-4-yl)pyrimidine-5-carbonitrile]",+++ (+++ indicates binding activity greater than 85%)
8,"C=CC(=O)N1CC2(CCN(c3nc(-c4c(C)ccc5[nH]ncc45)nc(N4CCOCC4)n3)C2)C1 [Compound I-189, 1-(6-(4-(5-methyl-1H-indazol-4-yl)-6-morpholino-1,3,5-triazin-2-yl)-2,6-diazaspiro[3.4]octan-2-yl)prop-2-en-1-one]",+ (+ indicates binding activity greater than 0% and up to 50%)
9,"C=CC(=O)N1CC2(CCN(c3nc(N4CCOCC4)nc(-c4c(C)ccc5[nH]ncc45)c3C#CC3CC3)C2)C1 [Compound I-190, 1-(6-(5-(cyclopropylethynyl)-6-(5-methyl-1H-indazol-4-yl)-2-morpholinopyrimidin-4-yl)-2,6-diazaspiro[3.4]octan-2-yl)prop-2-en-1-one]",+ (+ indicates binding activity greater than 0% and up to 50%)
10,"C=CC(=O)N1CC2(CCN(c3nc(N4CCC(N5CCN(C)[C@@H](C)C5)CC4)nc(-c4c(C)ccc5[nH]ncc45)c3C#N)C2)C1 [Compound I-191, 4-(2-acryloyl-2,6-diazaspiro[3.4]octan-6-yl)-2-(4-((S)-3,4-dimethylpiperazin-1-yl)piperidin-1-yl)-6-(5-methyl-1H-indazol-4-yl)pyrimidine-5-carbonitrile]",+++ (+++ indicates binding activity greater than 85%)
11,"C=C(C)C(=O)N1CC2(CCN(c3nc(N4CCOCC4)nc(-c4c(C)ccc5[nH]ncc45)c3C#N)C2)C1 [Compound I-192, 4-(2-methacryloyl-2,6-diazaspiro[3.4]octan-6-yl)-6-(5-methyl-1H-indazol-4-yl)-2-morpholinopyrimidine-5-carbonitrile]",+ (+ indicates binding activity greater than 0% and up to 50%)
12,"C=CC(=O)N1CC2(CCN(c3nc(N4CCC(N5CCN(C)[C@@H](C)C5)CC4)nc(-c4c(C)ccc5cnn(C)c45)c3C#N)C2)C1 [Compound I-193, 4-(2-acryloyl-2,6-diazaspiro[3.4]octan-6-yl)-6-(1,6-dimethyl-1H-indazol-7-yl)-2-(4-((S)-3,4-dimethylpiperazin-1-yl)piperidin-1-yl)pyrimidine-5-carbonitrile]",+++ (+++ indicates binding activity greater than 85%)
13,"C=CC(=O)N1CC2(CCN(c3nc(N4CCC(N5CCN(C)C6(CC6)C5)CC4)nc(-c4c(C)ccc5[nH]ncc45)c3C#N)C2)C1 [Compound I-194, 4-(2-acryloyl-2,6-diazaspiro[3.4]octan-6-yl)-6-(5-methyl-1H-indazol-4-yl)-2-(4-(4-methyl-4,7-diazaspiro[2.5]octan-7-yl)piperidin-1-yl)pyrimidine-5-carbonitrile]",+++ (+++ indicates binding activity greater than 85%)
14,"C=CC(=O)N1CC2(CCN(c3nc(C4CCOCC4)nc(-c4c(C)ccc5[nH]ncc45)c3C#N)C2)C1 [Compound I-196, 4-(2-acryloyl-2,6-diazaspiro[3.4]octan-6-yl)-6-(5-methyl-1H-indazol-4-yl)-2-(tetrahydro-2H-pyran-4-yl)pyrimidine-5-carbonitrile]",++ (++ indicates binding activity from 50 to 85%)
15,"C=CC(=O)N1CC2(CCN(c3nc(N4CCC(N5CCN(C)C6(CC6)C5)CC4)nc(-c4c(C)ccc5cnn(C)c45)c3C#N)C2)C1 [Compound I-197, 4-(2-acryloyl-2,6-diazaspiro[3.4]octan-6-yl)-6-(1,6-dimethyl-1H-indazol-7-yl)-2-(4-(4-methyl-4,7-diazaspiro[2.5]octan-7-yl)piperidin-1-yl)pyrimidine-5-carbonitrile]",+++ (+++ indicates binding activity greater than 85%)
16,"C=CC(=O)N1CC2(CCN(c3nc(N4CCC(N5CCN(C)[C@H](C)C5)CC4)nc(-c4c(C)ccc5cnn(C)c45)c3C#N)C2)C1 [Compound I-198, 4-(2-acryloyl-2,6-diazaspiro[3.4]octan-6-yl)-6-(1,6-dimethyl-1H-indazol-7-yl)-2-(4-((R)-3,4-dimethylpiperazin-1-yl)piperidin-1-yl)pyrimidine-5-carbonitrile]",+++ (+++ indicates binding activity greater than 85%)
17,"C=CC(=O)N1CC2(CCN(c3c(OC[C@@H]4CCCN4C)ncc(-c4c(C)ccc5[nH]ncc45)c3C#N)C2)C1 [Compound I-199, 3-(2-acryloyl-2,6-diazaspiro[3.4]octan-6-yl)-5-(5-methyl-1H-indazol-4-yl)-2-(((S)-1-methylpyrrolidin-2-yl)methoxy)isonicoti-nonitrile]",++ (++ indicates binding activity from 50 to 85%)
18,"Cc1ccc2[nH]ncc2c1-c1nc(N2CCOCC2)nc(N2CCC3(CN(C(=O)/C=C/CN4CCC4)C3)C2)c1C#N [Compound I-200, (E)-4-(2-(4-(azetidin-1-yl)but-2-enoyl)-2,6-diazaspiro[3.4]octan-6-yl)-6-(5-methyl-1H-indazol-4-yl)-2-morpholinopyrimidine-5-carbonitrile]",++ (++ indicates binding activity from 50 to 85%)
19,"C=CC(=O)N1CC2(CCN(c3nc(C(=O)N4CCOCC4)nc(-c4c(C)ccc5[nH]ncc45)c3C#N)C2)C1 [Compound I-201, 4-(2-acryloyl-2,6-diazaspiro[3.4]octan-6-yl)-6-(5-methyl-1H-indazol-4-yl)-2-(morpholine-4-carbonyl)pyrimidine-5-carbonitrile]",+ (+ indicates binding activity greater than 0% and up to 50%)
20,"C=CC(=O)N1CC2(CCN(c3nc(C(N)=O)nc(-c4c(C)ccc5[nH]ncc45)c3C#N)C2)C1 [Compound I-202, 4-(2-acryloyl-2,6-diazaspiro[3.4]octan-6-yl)-5-cyano-6-(5-methyl-1H-indazol-4-yl)pyrimidine-2-carboxamide]",+ (+ indicates binding activity greater than 0% and up to 50%)
21,"C=CC(=O)N1CC2(CCN(c3nc(C(=O)N4CCN(C)CC4)nc(-c4c(C)ccc5[nH]ncc45)c3C#N)C2)C1 [Compound I-203, 4-(2-acryloyl-2,6-diazaspiro[3.4]octan-6-yl)-6-(5-methyl-1H-indazol-4-yl)-2-(4-methylpiperazine-1-carbonyl)pyrimidine-5-carbonitrile]",+ (+ indicates binding activity greater than 0% and up to 50%)
22,"Cc1ccc2[nH]ncc2c1-c1nc(OC[C@@H]2CCCN2C)nc(N2CCC3(CN(C(=O)/C=C/CN(C)C)C3)C2)c1C#N [Compound I-204, 4-(2-((E)-4-(dimethylamino)but-2-enoyl)-2,6-diazaspiro[3.4]octan-6-yl)-6-(5-methyl-1H-indazol-4-yl)-2-(((S)-1-methylpyrrolidin-2-yl)methoxy)pyrimidine-5-carbonitrile]",+ (+ indicates binding activity greater than 0% and up to 50%)
23,"Cc1ccc2[nH]ncc2c1-c1nc(OC[C@@H]2CCCN2C)nc(N2CCC3(CN(C(=O)/C=C/CN4CCC4)C3)C2)c1C#N [Compound I-205, 4-(2-((E)-4-(azetidin-1-yl)but-2-enoyl)-2,6-diazaspiro[3.4]octan-6-yl)-6-(5-methyl-1H-indazol-4-yl)-2-(((S)-1-methylpyrrolidin-2-yl)methoxy)pyrimidine-5-carbonitrile]",+ (+ indicates binding activity greater than 0% and up to 50%)

# — patent US12134620B2 (ARAXES PHARMA LLC, priority 2018, dated 2024)
